Ki data for seven compounds are collected here from US20120316186A1, “DEAZAPURINES USEFUL AS INHIBITORS OF JANUS KINASES” (priority 2006, published 2012).

In one assay the target is JAK2 (Homo sapiens, UniProt O60674). Description: JAK2 Inhibition Assay. Format: biochemical. Conditions: 15 μM poly(Glu)4Tyr, 12 μM ATP; read-out: JAK2 enzyme inhibition data (Ki). The procedure: (§1) Compounds were screened for their ability to inhibit JAK3 using the assay shown below. Reactions were carried out in a kinase buffer containing 100 mM HEPES (pH 7.4), 1 mM DTT, 10 mM MgCl2, 25 mM NaCl, and 0.01% BSA. Substrate concentrations in the assay were 5 μM ATP (200 uCi/μmole ATP) and 1 μM poly(Glu)4Tyr. Reactions were carried out at 25° C. and 1 nM JAK3.
Chain of JAK2 (O60674 whole entry): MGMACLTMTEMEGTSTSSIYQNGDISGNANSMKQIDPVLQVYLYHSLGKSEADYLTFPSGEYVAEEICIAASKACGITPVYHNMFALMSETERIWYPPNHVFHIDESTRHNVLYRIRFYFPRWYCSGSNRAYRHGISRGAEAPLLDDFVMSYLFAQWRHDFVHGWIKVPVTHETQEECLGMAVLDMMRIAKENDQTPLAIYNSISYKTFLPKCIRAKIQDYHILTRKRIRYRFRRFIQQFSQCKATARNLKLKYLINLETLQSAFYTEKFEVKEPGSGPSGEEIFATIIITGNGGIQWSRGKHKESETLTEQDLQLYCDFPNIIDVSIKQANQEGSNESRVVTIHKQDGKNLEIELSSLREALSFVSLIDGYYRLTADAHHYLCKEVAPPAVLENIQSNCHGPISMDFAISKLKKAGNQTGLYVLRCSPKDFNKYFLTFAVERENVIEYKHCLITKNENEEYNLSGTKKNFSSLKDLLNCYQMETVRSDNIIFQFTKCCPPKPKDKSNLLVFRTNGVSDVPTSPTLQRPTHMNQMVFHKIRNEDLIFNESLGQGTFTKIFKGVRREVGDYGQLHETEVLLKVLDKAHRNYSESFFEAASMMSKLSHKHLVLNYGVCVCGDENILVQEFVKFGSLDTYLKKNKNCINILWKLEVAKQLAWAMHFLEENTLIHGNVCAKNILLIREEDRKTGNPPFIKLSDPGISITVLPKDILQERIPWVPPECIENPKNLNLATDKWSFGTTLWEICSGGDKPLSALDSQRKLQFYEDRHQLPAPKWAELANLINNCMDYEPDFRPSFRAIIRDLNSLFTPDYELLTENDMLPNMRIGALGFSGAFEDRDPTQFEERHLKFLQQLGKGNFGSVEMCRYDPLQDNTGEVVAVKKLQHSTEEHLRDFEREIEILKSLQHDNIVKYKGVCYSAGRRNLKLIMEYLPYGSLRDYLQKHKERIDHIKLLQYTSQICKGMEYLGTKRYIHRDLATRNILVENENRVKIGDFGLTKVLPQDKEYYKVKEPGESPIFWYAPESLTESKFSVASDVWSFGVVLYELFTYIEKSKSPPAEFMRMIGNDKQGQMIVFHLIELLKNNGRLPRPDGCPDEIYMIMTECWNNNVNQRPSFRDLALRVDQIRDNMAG
(§2) To each well of a 96 well polycarbonate plate was added 1.5 μl of a candidate JAK3 inhibitor along with 50 μl of kinase buffer containing 2 μM poly(Glu)4Tyr and 10 μM ATP. This was then mixed and 50 μl of kinase buffer containing 2 nM JAK3 enzyme was added to start the reaction. After 20 minutes at room temperature (25° C.), the reaction was stopped with 50 μl of 20% trichloroacetic acid (TCA) that also contained 0.4 mM ATP. The entire contents of each well were then transferred to a 96 well glass fiber filter plate using a TomTek Cell Harvester. After washing, 60 μl of scintillation fluid was added and ^33P incorporation detected on a Perkin Elmer TopCount.
The assays were as described above in Example 36 except that JAK-2 enzyme was used, the final poly(Glu)4Tyr concentration was 15 μM, and final ATP concentration was 12 μM.

Another assay concerns the target T1, JAK3 (Homo sapiens, UniProt P52333).
T1 sequence (P52333 1-1124): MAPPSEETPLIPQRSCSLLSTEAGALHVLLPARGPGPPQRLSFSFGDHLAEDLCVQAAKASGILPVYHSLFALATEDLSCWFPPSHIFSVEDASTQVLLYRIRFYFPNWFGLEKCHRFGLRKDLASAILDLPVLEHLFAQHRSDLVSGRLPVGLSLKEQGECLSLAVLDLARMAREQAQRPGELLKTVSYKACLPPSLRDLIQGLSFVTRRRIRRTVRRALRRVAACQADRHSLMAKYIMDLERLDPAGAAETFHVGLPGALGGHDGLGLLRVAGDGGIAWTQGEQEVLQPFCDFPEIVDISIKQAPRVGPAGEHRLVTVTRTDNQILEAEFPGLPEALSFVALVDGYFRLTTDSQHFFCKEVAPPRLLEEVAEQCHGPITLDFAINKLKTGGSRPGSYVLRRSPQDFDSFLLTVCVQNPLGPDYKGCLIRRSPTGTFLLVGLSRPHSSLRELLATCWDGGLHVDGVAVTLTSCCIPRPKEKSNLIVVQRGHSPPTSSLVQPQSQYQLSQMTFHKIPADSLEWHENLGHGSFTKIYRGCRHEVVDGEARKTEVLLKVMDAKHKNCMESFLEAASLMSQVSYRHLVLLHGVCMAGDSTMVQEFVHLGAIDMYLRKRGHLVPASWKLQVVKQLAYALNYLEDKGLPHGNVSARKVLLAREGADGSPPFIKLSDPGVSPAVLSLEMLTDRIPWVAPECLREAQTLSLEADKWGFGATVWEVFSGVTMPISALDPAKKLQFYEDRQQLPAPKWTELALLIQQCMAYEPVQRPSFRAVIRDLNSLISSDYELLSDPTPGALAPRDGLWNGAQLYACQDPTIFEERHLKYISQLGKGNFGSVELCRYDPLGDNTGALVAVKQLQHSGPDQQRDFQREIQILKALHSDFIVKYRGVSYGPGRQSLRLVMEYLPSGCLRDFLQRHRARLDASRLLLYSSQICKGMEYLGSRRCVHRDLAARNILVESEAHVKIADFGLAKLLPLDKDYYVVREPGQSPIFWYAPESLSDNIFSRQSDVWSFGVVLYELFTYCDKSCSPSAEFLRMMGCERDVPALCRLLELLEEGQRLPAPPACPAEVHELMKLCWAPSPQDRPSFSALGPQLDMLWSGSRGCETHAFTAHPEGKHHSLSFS
Description: JAK3 Inhibition Assay. Format: biochemical. Conditions: 1 μM poly(Glu)4Tyr, 5 μM ATP, 1 nM JAK3, 25° C.; read-out: JAK3 enzyme inhibition data (Ki). The procedure:
as §1, §2

On to `O=C(Cc1ccccc1F)Nc1nc(-c2ncnc3[nH]ccc23)cs1` [Compound 156], for which the values for the Ki on JAK2 and at JAK3 were below 100 nM and 100 to 500 nM, respectively.
Turning to `O=C(O)CC1(CC(=O)Nc2nc(-c3ncnc4[nH]ccc34)cs2)CCCC1` [Compound 143], the Ki on JAK2 and at JAK3 was 100 to 500 nM in each case.
On to `O=C(O)C1CCCCC1C(=O)Nc1nc(-c2ncnc3[nH]ccc23)cs1` (centres unmarked) [Compound 144], for which the Ki on JAK2 and at JAK3 was 100 to 500 nM each time.
On to `O=C(Nc1nc(-c2ncnc3[nH]ccc23)cs1)C1CCCOC1` (centres unmarked) [Compound 61], for which the Ki at JAK2 and at JAK3 was below 100 nM throughout.
`O=C(c1cc(-c2ncnc3[nH]ccc23)c[nH]1)N(CCC(F)(F)F)CC1CC1` [Compound 110]: the inhibition constant (Ki) at JAK2 and at JAK3 was below 100 nM throughout.
For `CC(CC(=O)Nc1nc(-c2ncnc3[nH]ccc23)cs1)CC(C)(C)C` (centres unmarked) [Compound 33], the inhibition constant (Ki) (in general, the dissociation constant of the complex between target and ligand, obtained from inhibition or displacement) on JAK2 was below 100 nM; on JAK3, 100 to 500 nM.
Consider `N#CCCN(C(=O)c1cc(-c2ncnc3[nH]ccc23)c[nH]1)C1CCCC1` [Compound 139], for which the Ki is below 100 nM on JAK2 and 100 to 500 nM at JAK3.
